According to paper PMC6891464, “Radiosynthesis and Biological Investigation of a Novel Fluorine-18 Labeled Benzoimidazotriazine-Based Radioligand for the Imaging of Phosphodiesterase 2A with Positron Emission Tomography” (Molecules, 2019):
Values belong to the compound of their own block, whether it stands above or below them.

Assays:
PDE2A [1] = experiment: In vitro autoradiography on pig brain cryosections, blocking studies; format: binding; conditions: 10 µM blocker
Description: To verify these findings, blocking studies with 10 µM of TA1 (a potent PDE2 ligand)
Pig brain cryosections (16 µm; Microm HM560 Cryostat, FischerScientific GmbH, Schwerte, Germany) were thawed, dried in a stream of cold air, and preincubated for 10 min with buffer (50 mM TRIS-HCl, pH 7.4, 120 mM NaCl, 5 mM KCl, 2 mM MgCl2) at room temperature. […] The sections were then washed twice with ice-cold 50 mM TRIS-HCl (pH 7.4), dipped in ice-cold deionized water, dried in a stream of cold air, and exposed for 60 min to an image plate. The analysis was performed using an image plate scanner (HD-CR 35; Duerr NDT GmbH, Bietigheim Bissingen, Germany).

PDE2A [2] = target: T1, PDE2A (Mus musculus, UniProt Q922S4); experiment: Dynamic PET-MRI studies in CD-1 mice; format: in vivo; conditions: female CD-1 mice, i.v., 5 min p.i.; whole brain, striatum and cerebellum
T1 construct: from tissue; host or cells: brain of living female CD-1 mice (in vivo PET)
T1 sequence (Q922S4 1-939): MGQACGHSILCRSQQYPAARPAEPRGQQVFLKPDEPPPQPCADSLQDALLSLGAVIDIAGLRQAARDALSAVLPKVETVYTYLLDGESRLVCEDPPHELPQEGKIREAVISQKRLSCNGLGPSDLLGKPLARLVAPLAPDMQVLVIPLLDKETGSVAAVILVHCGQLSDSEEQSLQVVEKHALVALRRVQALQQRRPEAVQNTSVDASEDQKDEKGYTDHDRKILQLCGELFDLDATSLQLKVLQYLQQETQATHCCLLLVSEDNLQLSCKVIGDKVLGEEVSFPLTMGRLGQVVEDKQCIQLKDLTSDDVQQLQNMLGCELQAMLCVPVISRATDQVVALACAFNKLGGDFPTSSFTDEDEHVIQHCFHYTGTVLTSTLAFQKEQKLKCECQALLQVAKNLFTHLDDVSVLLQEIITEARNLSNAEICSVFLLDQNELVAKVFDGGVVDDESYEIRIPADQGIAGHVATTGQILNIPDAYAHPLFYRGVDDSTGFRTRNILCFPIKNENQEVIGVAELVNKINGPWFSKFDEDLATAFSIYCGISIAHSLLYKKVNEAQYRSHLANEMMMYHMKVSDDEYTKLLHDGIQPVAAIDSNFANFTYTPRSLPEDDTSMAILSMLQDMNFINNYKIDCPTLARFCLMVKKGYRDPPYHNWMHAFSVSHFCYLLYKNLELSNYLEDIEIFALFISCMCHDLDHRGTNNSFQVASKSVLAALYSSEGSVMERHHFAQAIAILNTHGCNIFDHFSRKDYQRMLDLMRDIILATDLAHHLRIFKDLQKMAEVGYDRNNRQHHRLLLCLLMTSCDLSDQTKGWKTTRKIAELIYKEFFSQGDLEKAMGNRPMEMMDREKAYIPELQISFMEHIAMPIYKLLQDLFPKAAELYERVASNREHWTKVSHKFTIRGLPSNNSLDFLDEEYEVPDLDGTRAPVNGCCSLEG
Description: As reflected by the time-activity curves (TACs) shown in Figure 6, the radioactivity uptake in the whole brain, striatum, and cerebellum reached standardized uptake values (SUVs) of about 0.7 at 5 min p.i., indicating blood-brain barrier penetration.
PET/MRI scans were performed using a preclinical PET/MRI system (nanoScan, Mediso Medical Imaging Systems, Budapest, Hungary). Animals were anesthetized with a mixture of air/isoflurane (2.0%, 200 mL/min) (Anesthesia Unit U-410, agntho’s, Lidingö, Sweden), and their body temperature maintained at 37 °C with a thermal bed system. […] A dynamic 60-min PET scan was started 20 sec before radioligand injection. The list-mode data were reconstructed into 33 frames (12 × 10 sec, 6 × 30 sec, 5 × 1 min, 10 × 5 min) with 3D-ordered subset expectation maximization, 4 iterations, and 6 subsets, using an energy window of 400 to 600 KeV and coincidence mode of 1–5. After the PET scan, an MRI scan was performed for anatomical orientation and attenuation correction on a 1T magnet using a T1-weighted gradient-echo sequence (TR = 15 ms, TE = 2.6 ms). The data analysis was done with PMOD (PMOD Technologies Ltd., Zurich, Switzerland, v. 3.6), and an atlas-based method was used to obtain SUV time-activity curves for the striatum, cerebellum, and the whole brain.

[3] = Lipophilicity by shake-flask method (n-octanol/PBS); format: physicochemical; conditions: n-octanol/PBS pH 7.4, ambient temperature, read-out: logD7.4
Description: (§1) The lipophilicity was determined by the shake-flask method in the n-octanol/PBS system. […] Moreover, the big discrepancy between the experimental and the calculated logD7.4 value was already observed for our PDE2 tracer [^18F]TA5 and has been previously discussed. It is assumed that the experimentally determined higher hydrophilicity of [^18F]TA5 might be due to the solvation effect related to hydrogen bonding and ionization of the radioligand in the aqueous buffered system. Whereas with the software-based determination, this effect may be underestimated. Therefore, the calculated logD value is often higher than the experimentally determined value.
The tubes were shaken for 20 min using a mechanical shaker (HS250 basic, IKA Labortechnik GmbH & Co. KG, Staufen, Germany) followed by centrifugation (5000 rpm for 5 min) and separation of the phases. Aliquots of 1 mL of the organic and the aqueous phase were taken, and the activity was measured using an automated gamma counter (1480 WIZARD, Fa. Perkin Elmer, Waltham, MA, USA). The distribution coefficient (D) was calculated as [activity (cpm/mL) in n-octanol]/[(activity (cpm/mL) in PBS], specified as the decadic logarithm (logD).

[4] = In vivo metabolism of the radioligand in mice; parameters: species or system mouse; conditions: i.v., 30 min p.i., radio-HPLC
Description: Prior to the analysis with RP-HPLC, the samples were treated with a mixture of MeCN/H2O (4:1, v/v) to precipitate the proteins. The recovery of radioactivity in plasma and brain samples was 96% and 99%, respectively. […] As shown in the chromatograms (Figure 5), the two radio-metabolites ([^18F]M1 and [^18F]M2) found in the brain were also observed in the corresponding plasma sample, indicating their ability to penetrate the blood-brain barrier. […] On the basis of the in vitro metabolites M1 and M2, both elucidated by LC-MS in the mentioned study, we can conclude about the brain penetrating radio-metabolites [^18F]M1 and [^18F]M2 as products of N-oxidation or C-hydroxylation. Besides, some of the more polar radio-metabolites detected in plasma could only tentatively be assigned as formed by mono-oxygenation, di-oxygenation, reduction, and demethylation, but were not investigated further. […]
Protein precipitation of plasma and brain samples was performed in duplicate with ice-cold MeCN/H2O (8:2, v/v), which was added to the samples (sample/solvent, 1:4, v/v). […] The combined supernatants were concentrated at 70 °C under nitrogen stream until a remaining volume of 100 µL and subsequently quantified by analytical radio-HPLC with an isocratic system (42% MeCN/20 mM NH4OAcaq.; flow rate: 1.0 mL/min). […]

[5] = In vitro stability of the radioligand; format: physicochemical; conditions: PBS, pig plasma, n-octanol and saline formulation containing 10% ethanol; 40 °C, up to 1 h
Description: as §1
Samples were taken at 30 and 60 min and analyzed by radio-TLC and radio-HPLC.

hPDE2A = conditions: cited from earlier work
hPDE10A = test system: hPDE10A; parameters: method as in PMID 24189054, PMID 23651455; conditions: cited from earlier work
PDE2A [6] = conditions: cited from earlier work
PDE10A = conditions: cited from earlier work

decrease of [18F]BIT1 binding in caudate nucleus (Cd) (PDE2A [1]; 1.72 nM [18F]BIT1): ~ 50%
decrease of [18F]BIT1 binding in nucleus accumbens (Acb) (PDE2A [1]; 1.72 nM [18F]BIT1): ~ 30%
decrease of [18F]BIT1 binding in cerebellum (Cb) (PDE2A [1]; 1.72 nM [18F]BIT1, non-PDE2A region): 20–30%
SMILES: COc1ccc(Cl)c(-c2nc(C)c3nnc4ccc(-c5ccnc(F)c5)cc4n23)c1 [BIT1, 1-(2-chloro-5-methoxyphenyl)-8-(2-fluoropyridin-4-yl)-3-methylbenzo[e]imidazo[5,1-c][1,2,4]triazine]

standardized uptake value (SUV) in brain (PDE2A [2]): ~ 0.7
logD [3]: 1.81 ± 0.05
intact tracer, fraction of total activity in brain ([4]; brain homogenate): 78%
intact tracer, fraction of total activity in plasma [4]: 43%
in vitro stability (radiochemical purity after incubation) [5]: ≥ 99%
SMILES: COc1ccc(Cl)c(-c2nc(C)c3nnc4ccc(-c5ccnc([18F])c5)cc4n23)c1 [[^18F]BIT1]

SMILES: Cc1nc(-c2cnn(C)c2-c2ccc(C(F)(F)F)cc2)c2c(N3CC([18F])C3)ncnn12 [[^18F]PF-05270430]
IC50 (hPDE2A): 0.0005 µM
IC50 (hPDE10A): > 3 µM

SMILES: COc1ccc2nnc3c(C)nc(-c4cc(OCCC[18F])ccc4F)n3c2n1 [[^18F]TA3]
IC50 (PDE2A [6]): 0.0114 µM
IC50 (PDE10A): 0.318 µM

SMILES: COc1ccc2nnc3c(C)nc(-c4cc(OCCCC[18F])ccc4F)n3c2n1 [[^18F]TA4]
IC50 (PDE2A [6]): 0.0073 µM
IC50 (PDE10A): 0.913 µM

SMILES: CCCCOc1ccc(F)c(-c2nc(C)c3nnc4ccc(OCC[18F])nc4n23)c1 [[^18F]TA5]
IC50 (PDE10A): > 1 µM
